According to PubChem BioAssay AID1259246 (Broad Institute, 2017):
Results filed as inconclusive are left out. Calls of active or inactive are those of the source.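 How the source made its calls: active means valid dose-response fit whose half-maximal growth-inhibiting concentration is at or below a set limit above the top tested dose; inconclusive means flat fit with effect between 30 and 70%, or poor fit; inactive means half-maximal concentration above a set limit.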

Experiment: antibacterial activity against Clostridioides difficile – 10-point retest, dose response (AID 1259246)
Conditions: Clostridioides difficile clinical isolate growth, OD600, 24 h; at 60 µM (top of the series)

SMILES | activity change, negative = inhibition
CC(C)CC#Cc1ccc2c(c1)O[C@@H](CN(C)Cc1ccc(C(=O)O)cc1)[C@H](C)CN([C@@H](C)CO)S2(=O)=O | 2.34% (inactive)
C[C@@H]1CN([C@H](C)CO)S(=O)(=O)c2ccc(/C=C/c3ccccc3)cc2O[C@H]1CN(C)C | 5.46% (inactive)
COC(=O)[C@@H]1[C@@H](CO)[C@@H]2Cn3c(ccc(-c4cccc(F)c4)c3=O)[C@@H]2N1C(C)=O | 9.82% (inactive)
CN(C)CC(=O)N1[C@H](C#N)[C@H](c2ccc(C#CC3CCCCC3)cc2)[C@H]1CO | 6.71% (inactive)

Same assay, conditions: Clostridioides difficile clinical isolate growth, OD600, 24 h; at 68 µM (top of the series)

SMILES | activity change, negative = inhibition
O=C(C[C@H]1C[C@@H]2c3cc(NC(=O)C4CCC4)ccc3O[C@@H]2[C@@H](CO)O1)NCCN1CCCCC1 | -0.905% (inactive)
O=C(C[C@H]1C[C@@H]2c3cc(NS(=O)(=O)c4ccc(F)cc4)ccc3O[C@@H]2[C@@H](CO)O1)NCc1ccc(Cl)cc1 | 8.4% (inactive)
C[C@@H]1CN([C@@H](C)CO)C(=O)c2cccc(NC(=O)Nc3ccc(C(F)(F)F)cc3)c2O[C@H]1CN(C)S(=O)(=O)c1ccc(Cl)cc1 | 12.7% (inactive)

Same assay, conditions: Clostridioides difficile clinical isolate growth, OD600, 24 h; at 120 µM (top of the series)

SMILES | activity change, negative = inhibition
C[C@H](CO)N1C[C@H](C)[C@@H](CN(C)S(=O)(=O)c2ccc(F)cc2)OCCCC[C@H](C)Oc2ccc(NC(=O)Nc3cccc4ccccc34)cc2C1=O | 16.3% (inactive)
C[C@H](CO)N1C[C@H](C)[C@@H](CN(C)C(=O)Cc2cccnc2)Oc2cc(C#Cc3ccccc3F)ccc2S1(=O)=O | 40.8% (inactive)
C[C@@H]1CN([C@H](C)CO)C(=O)c2cccc(NC(=O)Nc3ccc(C(F)(F)F)cc3)c2O[C@@H]1CN(C)C(=O)NC1CCCCC1 | 7.85% (inactive)
C[C@@H]1CN([C@@H](C)CO)S(=O)(=O)c2ccc(/C=C/c3ccccc3)cc2O[C@H]1CN(C)C(=O)c1ccccc1 | 18.9% (inactive)
C[C@@H]1CN([C@H](C)CO)C(=O)Cc2cc(NC(=O)C3CC3)ccc2O[C@H]1CN(C)Cc1ccc(Oc2ccccc2)cc1 | 20.2% (inactive)
C[C@@H]1CN([C@@H](C)CO)C(=O)c2cccc(NC(=O)Nc3ccc4c(c3)OCO4)c2O[C@@H]1CN(C)C(=O)Nc1cccc2ccccc12 | 6.09% (inactive)
CC(C)CC#Cc1ccc2c(c1)O[C@@H](CN(C)Cc1ccc3c(c1)OCO3)[C@@H](C)CN([C@@H](C)CO)S2(=O)=O | 22.9% (inactive)
C[C@H](CO)N1C[C@H](C)[C@H](CN(C)S(=O)(=O)c2ccc(F)cc2)OCCCC[C@H](C)Oc2ccc(NC(=O)Nc3cccc4ccccc34)cc2C1=O | 34.7% (inactive)
CO[C@H]1CN(C)C(=O)c2cc(NC(=O)c3ccc(Oc4ccccc4)cc3)ccc2OC[C@H](C)NC[C@H]1C | 31.6% (inactive)
C[C@@H]1CN([C@@H](C)CO)C(=O)c2cccc(NC(=O)Nc3ccc(C(F)(F)F)cc3)c2O[C@H]1CN(C)Cc1ccc(-c2ccccc2)cc1 | 20.3% (inactive)
CO[C@H]1CN(C)C(=O)c2cc(NC(=O)c3nc4ccccc4s3)ccc2OC[C@H](C)N(Cc2ccncc2)C[C@@H]1C | 4.91% (inactive)
COc1ccc(-c2ccc([C@H]3[C@H](C#N)N(C(=O)C4CCCC4)[C@H]3CO)cc2)cc1 | 5.91% (inactive)
COc1ccc(CN(C)C[C@@H]2OCCCC[C@H](C)Oc3ccc(NC(=O)Nc4cccc5ccccc45)cc3C(=O)N([C@@H](C)CO)C[C@H]2C)cc1 | 42% (inactive)
CC(C)C#Cc1ccc2c(c1)O[C@H](CN(C)CC1CCOCC1)[C@H](C)CN([C@H](C)CO)S2(=O)=O | 10.2% (inactive)
Cc1ccc(-c2ccc3c(c2)O[C@H](CN(C)Cc2ccncc2)[C@@H](C)CN([C@H](C)CO)S3(=O)=O)cc1 | 22.9% (inactive)
CC(C)CC#Cc1ccc2c(c1)O[C@H](CN(C)CC1CCOCC1)[C@H](C)CN([C@@H](C)CO)S2(=O)=O | 15.6% (inactive)
CNC[C@H]1OCCCC[C@H](C)Oc2ccc(NC(=O)Nc3cccc4ccccc34)cc2C(=O)N([C@H](C)CO)C[C@@H]1C | 11.4% (inactive)
C[C@H](CO)N1C[C@H](C)[C@@H](CN(C)C(=O)Nc2ccc(C(F)(F)F)cc2)Oc2c(NC(=O)Nc3cccc4ccccc34)cccc2C1=O | 36.8% (inactive)
COc1ccc(NC(=O)Nc2cccc3c2O[C@@H](CN(C)C(=O)NC2CCCCC2)[C@H](C)CN([C@H](C)CO)C3=O)cc1 | 1.64% (inactive)
CC(C)CC#Cc1ccc2c(c1)O[C@@H](CN(C)Cc1ccc3c(c1)OCO3)[C@H](C)CN([C@H](C)CO)S2(=O)=O | 17.8% (inactive)
O=C(C[C@H]1C[C@H]2c3cc(NS(=O)(=O)c4ccc(F)cc4)ccc3O[C@H]2[C@@H](CO)O1)NCc1ccc(-c2ccccc2)cc1 | 10.6% (inactive)

SMILES | activity change, negative = inhibition
O=C(C[C@H]1C[C@H]2c3cc(NC(=O)C4CCC4)ccc3O[C@H]2[C@H](CO)O1)NCc1ccc(Cl)cc1 | 6.93% (inactive)
C[C@@H]1CN([C@H](C)CO)C(=O)c2cc(NC(=O)c3ccccc3)ccc2O[C@@H](C)CCCCO[C@H]1CN(C)S(=O)(=O)c1ccc(F)cc1 | 10.1% (inactive)
C[C@@H]1CN([C@@H](C)CO)C(=O)Cc2cc(NS(=O)(=O)c3cccs3)ccc2O[C@@H]1CN(C)S(=O)(=O)c1ccc(Cl)cc1 | 32.8% (inactive)
COc1cccc(NC(=O)N(C)C[C@@H]2Oc3cc(/C=C/c4ccccc4)ccc3S(=O)(=O)N([C@@H](C)CO)C[C@H]2C)c1 | 19.6% (inactive)
CC(C)CC#Cc1ccc2c(c1)O[C@H](CN(C)CC1CCOCC1)[C@H](C)CN([C@H](C)CO)S2(=O)=O | 14.5% (inactive)
CC(C)NC(=O)Nc1ccc2c(c1)CC(=O)N([C@H](C)CO)C[C@@H](C)[C@@H](CN(C)Cc1ccc(-c3ccccc3)cc1)O2 | 20.5% (inactive)
O=C(C[C@@H]1C[C@@H]2c3cc(NC(=O)C4CCC4)ccc3O[C@@H]2[C@@H](CO)O1)NCc1ccc(Cl)cc1 | -5.46% (inactive)
O=C(O)C[C@H]1C[C@@H]2c3cc(NC(=O)NC4CCCC4)ccc3O[C@@H]2[C@@H](CO)O1 | 2.6% (inactive)
COc1ccc(CN(C)C[C@H]2Oc3ccc(NC(=O)C4CC4)cc3CC(=O)N([C@@H](C)CO)C[C@H]2C)cc1 | -3.18% (inactive)
C[C@H]1CN([C@@H](C)CO)S(=O)(=O)c2ccc(C#CC3CCCCC3)cc2O[C@@H]1CN(C)Cc1cccnc1 | 20.8% (inactive)
C[C@@H]1CCCCO[C@H](CN(C)S(=O)(=O)c2ccc(F)cc2)[C@@H](C)CN([C@@H](C)CO)C(=O)c2cc(NC(=O)Nc3cccc4ccccc34)ccc2O1 | 19.1% (inactive)
C[C@H](CO)N1C[C@H](C)[C@@H](CN(C)C(=O)c2ccccc2)OCCCC[C@H](C)Oc2ccc(NC(=O)Nc3cccc4ccccc34)cc2C1=O | 37.5% (inactive)
COc1ccccc1S(=O)(=O)N(C)C[C@@H]1Oc2cc(/C=C/c3ccccc3)ccc2S(=O)(=O)N([C@@H](C)CO)C[C@H]1C | 32.3% (inactive)
CO[C@@H]1CN(C)C(=O)c2ccc(NC(=O)c3nc4ccccc4s3)cc2OC[C@H](C)N(Cc2ccncc2)C[C@@H]1C | 10.8% (inactive)
C[C@@H]1CN([C@@H](C)CO)C(=O)Cc2cc(NC(=O)CCCN(C)C)ccc2O[C@H]1CN(C)C(=O)Nc1ccccc1 | -1.61% (inactive)
C[C@@H]1CN([C@H](C)CO)C(=O)c2cccc(NC(=O)Nc3ccccc3)c2O[C@H]1CN(C)Cc1ccc(Oc2ccccc2)cc1 | 17.8% (inactive)
C[C@@H]1CN([C@@H](C)CO)S(=O)(=O)c2ccc(C#CC3CCCCC3)cc2O[C@H]1CN(C)Cc1cccnc1 | 17.6% (inactive)
COc1ccc(NC(=O)Nc2cccc3c2O[C@H](CN(C)C(=O)NC2CCCCC2)[C@@H](C)CN([C@H](C)CO)C3=O)cc1 | -0.118% (inactive)
C[C@@H]1CN([C@@H](C)CO)C(=O)c2cccc(NC(=O)Nc3ccc(C(F)(F)F)cc3)c2O[C@H]1CN(C)S(=O)(=O)c1ccc(Cl)cc1 | 50.7% (inactive)
C[C@@H]1CN([C@H](C)CO)C(=O)c2cc(NC(=O)Nc3cccc4ccccc34)ccc2O[C@@H](C)CCCCO[C@H]1CN(C)S(C)(=O)=O | 1.6% (inactive)

Same assay, conditions: Clostridioides difficile clinical isolate growth, OD600, 24 h; at 135 µM (top of the series)

SMILES | activity change, negative = inhibition
CNC[C@H]1Oc2c(N)cccc2C(=O)N([C@H](C)CO)C[C@@H]1C | -1.95% (inactive)
O=C(C[C@H]1C[C@H]2c3cc(NC(=O)Nc4ccc(F)cc4)ccc3O[C@H]2[C@@H](CO)O1)NC1CCCCC1 | -1.5% (inactive)
CO[C@H]1CN(C)C(=O)c2cc(NC(=O)c3ccccc3)ccc2OC[C@H](C)NC[C@H]1C | -3.19% (inactive)
O=C(Nc1ccc(-c2ccccc2)cc1)[C@H]1[C@H](CO)[C@H]2Cn3c(cccc3=O)[C@H]2N1CC1CCCCC1 | 32.6% (inactive)
C[C@@H]1CN([C@H](C)CO)C(=O)c2cc(NC(=O)Nc3cccc4ccccc34)ccc2O[C@@H](C)CCCCO[C@H]1CN(C)C(=O)c1ccccc1 | 14.9% (inactive)
O=C(C[C@H]1C[C@@H]2c3cc(NC(=O)Nc4ccccc4)ccc3O[C@@H]2[C@H](CO)O1)NC1CCCC1 | -0.545% (inactive)
COc1ccccc1CNC(=O)C[C@H]1C[C@@H]2c3cc(NC(=O)NC4CCCC4)ccc3O[C@@H]2[C@H](CO)O1 | 4.13% (inactive)
O=S(=O)(Cc1ccccc1)NCC[C@H]1CC[C@H](NS(=O)(=O)c2ccc(F)cc2)[C@H](CO)O1 | -6.92% (inactive)
O=C(N[C@H]1CC[C@H](CCNS(=O)(=O)Cc2ccccc2)O[C@H]1CO)c1ccc2c(c1)OCO2 | -7.24% (inactive)
C[C@@H]1CN([C@@H](C)CO)C(=O)Cc2cc(NC(=O)C3CC3)ccc2O[C@@H]1CN(C)Cc1ccc(Cl)c(Cl)c1 | 16.4% (inactive)
O=C(C[C@H]1C[C@H]2c3cc(NC(=O)Nc4ccccc4)ccc3O[C@H]2[C@@H](CO)O1)NC1CCCC1 | 11% (inactive)
